The text below walks through data of ChEMBL document CHEMBL4261614, “Discovery of traditional Chinese medicine monomers and their synthetic intermediates, analogs or derivatives for battling P-gp-mediated multi-drug resistance” (Eur J Med Chem, 2018).

In series [1] the target is ATP-dependent translocase ABCB1 (Homo sapiens, UniProt P08183). Nature of the series: Inhibition of MDR1 (unknown origin) expressed in MDCK-MDR1 cells assessed as increase in Rh123 accumulation at 100 uM after 30 mins by spectrofluorometric analysis relative to control. The format is cell-based. Particulars: mdck-mdr1, 0.5 h.
Chain of ATP-dependent translocase ABCB1 (P08183 whole entry): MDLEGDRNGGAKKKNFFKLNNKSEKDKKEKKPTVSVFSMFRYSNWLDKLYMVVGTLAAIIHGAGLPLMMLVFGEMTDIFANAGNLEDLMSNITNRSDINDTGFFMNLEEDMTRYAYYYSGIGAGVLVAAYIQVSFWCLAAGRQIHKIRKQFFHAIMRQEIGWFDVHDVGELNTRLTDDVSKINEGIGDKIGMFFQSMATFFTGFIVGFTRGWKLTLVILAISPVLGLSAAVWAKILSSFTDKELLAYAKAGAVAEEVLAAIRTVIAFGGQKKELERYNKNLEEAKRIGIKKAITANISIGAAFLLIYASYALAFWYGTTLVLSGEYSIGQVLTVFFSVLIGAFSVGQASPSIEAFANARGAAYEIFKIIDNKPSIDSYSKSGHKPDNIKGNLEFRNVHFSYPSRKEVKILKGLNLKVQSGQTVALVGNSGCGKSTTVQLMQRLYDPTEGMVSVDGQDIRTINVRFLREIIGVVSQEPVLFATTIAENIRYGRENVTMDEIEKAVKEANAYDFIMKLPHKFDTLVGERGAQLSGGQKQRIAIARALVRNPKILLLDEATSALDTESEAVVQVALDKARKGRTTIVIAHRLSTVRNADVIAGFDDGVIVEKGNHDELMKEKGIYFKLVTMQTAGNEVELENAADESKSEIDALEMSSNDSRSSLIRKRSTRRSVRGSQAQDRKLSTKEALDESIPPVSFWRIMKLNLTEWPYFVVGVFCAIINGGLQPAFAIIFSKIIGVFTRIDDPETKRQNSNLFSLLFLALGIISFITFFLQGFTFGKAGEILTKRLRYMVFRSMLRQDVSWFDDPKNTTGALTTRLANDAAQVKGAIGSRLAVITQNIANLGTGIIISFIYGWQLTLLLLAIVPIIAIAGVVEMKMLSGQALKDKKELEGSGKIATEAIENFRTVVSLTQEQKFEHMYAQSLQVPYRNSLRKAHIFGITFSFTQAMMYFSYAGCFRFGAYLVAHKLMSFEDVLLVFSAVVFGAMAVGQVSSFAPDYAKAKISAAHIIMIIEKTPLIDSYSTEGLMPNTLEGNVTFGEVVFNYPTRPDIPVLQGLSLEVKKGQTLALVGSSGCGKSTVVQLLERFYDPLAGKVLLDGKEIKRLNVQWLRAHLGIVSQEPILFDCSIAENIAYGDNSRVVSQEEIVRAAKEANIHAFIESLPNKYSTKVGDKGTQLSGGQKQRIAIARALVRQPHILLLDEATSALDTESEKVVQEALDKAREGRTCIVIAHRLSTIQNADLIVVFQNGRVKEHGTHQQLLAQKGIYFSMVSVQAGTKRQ
The species named for series [2] is Homo sapiens. The experiment in a line: Inhibition of P-gp in human KBv200 cells assessed as potentiation of vincristine-induced cytotoxicity by measuring reduction in vincristine IC50 at 25 uM after 96 hrs by […] relative to vincristine alone. The format is cell-based. In general terms: In western blotting, separated proteins are transferred to a membrane and probed.

Take `CC(C)C(=O)OC(C)(C)[C@@H]1Cc2c(ccc3ccc(=O)oc23)O1`: the “fold change (FC)” value in series [1] was 9.

Take `COc1cc2c(c(OC)c1OC)-c1c(cc(OC)c(OC)c1OC)C[C@](C)(O)[C@@H](C)C2`: the Ratio IC50 in series [2] is 3.8.

As to `COc1cc2c(c(OC)c1OC)-c1c(cc3c(c1OC)OCO3)CC(C)C(C)C2` (centres undefined), the Ratio IC50 in series [2] is 23.5.

Turning to `COc1cc2c(c(OC)c1OC)-c1c(cc(OC)c(OC)c1OC)C[C@H](C)[C@H](C)C2`, in series [2], the Ratio IC50 came to 309.
